Measured values as given in PMC6150025, “Novel Mixed-Type Inhibitors of Protein Tyrosine Phosphatase 1B. Kinetic and Computational Studies” (Molecules : A Journal of Synthetic Chemistry and Natural …, 2017).

What was measured:
PTP1B = target: T1, PTP1B (Homo sapiens, UniProt P18031); assay: PTP1B enzymatic inhibition assay (pNPP substrate); assay type: biochemical; conditions: for % Inhibition (200 µM): Table S1, 200 µM compound
T1 construct: encodes for PTP1B (residues 1–321); inferred from the pET28A vector, NdeI/BamHI cloning and Ni-agarose purification) (N); made in house; host or cells: E. coli BLR
T1 sequence (P18031 1-321): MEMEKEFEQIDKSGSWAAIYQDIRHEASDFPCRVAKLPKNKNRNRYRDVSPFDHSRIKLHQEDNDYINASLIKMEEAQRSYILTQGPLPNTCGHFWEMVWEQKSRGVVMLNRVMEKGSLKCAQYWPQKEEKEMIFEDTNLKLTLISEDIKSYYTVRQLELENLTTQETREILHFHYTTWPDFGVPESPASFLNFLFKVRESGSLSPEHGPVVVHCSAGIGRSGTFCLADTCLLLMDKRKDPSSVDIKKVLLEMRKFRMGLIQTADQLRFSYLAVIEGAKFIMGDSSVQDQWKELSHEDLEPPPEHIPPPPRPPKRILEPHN
Method: The PTP1B activity was measured based on the Goldstein method. The assay was performed with a final reaction volume of 500 µL in HEPES buffer (50 mM HEPES, 1mM DTT, 2 mM EDTA and 150 mM NaCl, pH 7.0), DMSO (10%) and p-nitrophenol phosphate (pNPP) as substrate (50 mM), the reaction was started with the PTP1B (1.5 µg/mL). After 30 min of incubation at 37 °C, the reaction was stopped by the addition of 500 µL of NaOH 5N reading the absorbance at 405 nm. The number of hydrolyzed moles of pNPP was determined using the molar extinction coefficient of the product pNP (18,500 M^−1 cm^−1).
Inhibition assays were performed under the above described conditions, adding to the reaction each one of the molecules at a final concentration of 200 µM. The concentration that inhibits 50% (IC50) of the PTP1B activity was determined through curves at different concentration of each compound, adjusting the data to the equation reported elsewhere. The inhibition type and constant were obtained by the measurement of the initial velocities of hydrolysis varying the substrate concentration in a range of 2–30 µM, in absence or presence of fixed concentrations of each inhibitor. For compound 1 the concentrations used were 3, 6, 10 and 20 µM; in the case of compound 2 were 2, 4, 6, 8, and 10 µM; and for compound 3 were 20, 50, 70 and 90 µM. The experimental data were analyzed through the Lineweaver-Burk plot using the software Sigma Plot V12.3 (Systat Software, Inc., San Jose, CA, USA).

Row | SMILES | melting point [°C] | inhibition at 200 µM (PTP1B; 200 µM compound, pNPP 50 mM, 30 min, 37 °C) [%] | % Inhibition (200 µM) (PTP1B) [%]
1 | CC(=O)Nc1nc2cc(Oc3cccc(Cl)c3Cl)c(Cl)cc2n1C [Compound 9, N-[6-Chloro-5-(2,3-dichlorophenoxy)-1-methyl-1H-benzimidazol-2-yl]acetamide] | 237.5 to 238.9 | 70 | –
2 | CN(C)S(=O)(=O)Oc1ccc(-c2noc(-c3ccc(OC(F)(F)F)cc3)n2)cc1 [N,N-dimethyl(4-{5-[4-(trifluoromethoxy)phenyl]-1,2,4-oxadiazol-3-yl}phenyl)sulfamate] | – | – | 38
3 | O=S(=O)(c1ccc(NC(=S)Nc2ccc3c(c2)OCO3)cc1)N1CCCCC1 [N-(1,3-benzodioxol-5-yl)-N'-[4-(piperidinosulfonyl)phenyl]thiourea] | – | – | 32
4 | CSc1nc2cc(C(=O)Nc3nc4cc(Oc5cccc(Cl)c5Cl)c(Cl)cc4[nH]3)ccc2n1C [N-[6-chloro-5-(2,3-dichlorophenoxy)-1H-benzimidazol-2-yl]-1-methyl-2-(methylsulfanyl)-1H-benzimidazole-5-carboxamide] | – | – | 42
5 | COC(=O)c1cccc2nc(Cc3ccc([N+](=O)[O-])cc3)sc12 [methyl 2-[(4-nitrophenyl)methyl]-1,3-benzothiazole-7-carboxylate] | – | – | 64
6 | COC(=O)c1cc(S(=O)(=O)NCC2CN(Cc3ccccc3)CN(Cc3ccccc3)C2)oc1C [methyl 5-({[(1,3-dibenzylhexahydro-5-pyrimidinyl)methyl]amino}sulfonyl)-2-methyl-3-furoate] | – | – | 50
7 | COC(=O)c1cc2nc(SCC(=O)Nc3ncc([N+](=O)[O-])s3)[nH]c2cc1Cl [methyl 6-chloro-2-({2-[(5-nitro-1,3-thiazol-2-yl)amino]-2-oxoethyl}sulfanyl)-1H-benzimidazole-5-carboxylate] | – | – | 63
8 | COC(=O)c1cc2nc(SCC(=O)Nc3ccc([N+](=O)[O-])cn3)[nH]c2cc1Cl [methyl 6-chloro-2-({2-[(5-nitropyridin-2-yl)amino]-2-oxoethyl}sulfanyl)-1H-benzimidazole-5-carboxylate] | – | – | 63
9 | COC(=O)c1c(Cl)ccc2nc(Cc3ccc([N+](=O)[O-])cc3)sc12 [methyl 6-chloro-2-[(4-nitrophenyl)methyl]-1,3-benzothiazole-7-carboxylate] | – | – | 56
